Experimental data: PMC8811960, “A Novel 2-Carbon-Linked Dimeric Artemisinin With Potent Antileukemic Activity and Favorable Pharmacology” (Frontiers in Oncology, 2022)

Tests used:
DDIT3 = test: qRT-PCR for DDIT3 mRNA; assay type: cell-based, human; details: MOLM14, 18h, ART631 200 nM, ART838 200 nM, AS 10 uM, similar results in MV4;11 and ML2
Procedure: Cells were pre-treated with […] ROS detection reagent 5-(and 6-)-chloromethyl-2’,7’-dichlorodihydrofluorescein diacetate (CM-H2DCFDA, Life Technologies) for 30 min, followed by the iron chelator deferoxamine mesylate (DFO; 11 mM) for 60 min. Cells were then treated with ART631 (200 nM) or DMSO control for 18h, with subsequent analysis by flow cytometry. Western blotting and quantitative reverse transcription PCR (qRT-PCR) to assess for molecular markers of ROS-mediated apoptosis were performed as previously described ([20]).
(§1) Figure 4 ART631 elevated ROS and CHOP levels and reduced MCL1 expression in MOLM14 AML cells. (A) MOLM14 AML cells were pre-treated with ROS detection reagent CM-H2DCFDA (5 mM) for 30 min, pre-treated with deferoxamine mesylate (DFO; 11 mM) for 60 min, and then treated with ART631 (200 nM) or DMSO control for 18h. They were then analyzed by flow cytometry. Graph represents %CM-H2DCFDA fluorescence compared to vehicle (DMSO) control treated cells. Error bars represent SD from 3 independent experiments. (B) MOLM14 AML cells were treated for 18h with vehicle, AS (10 uM), ART838 (200 nM), ART631 (200 nM), cytarabine (AraC; 150 nM), or SOR (5 uM). Protein was isolated and western blotted for MCL1, BCL2, CHOP, and β-actin. (C) MOLM14 cells were treated as in (B) for 18h, total RNA isolated, cDNA synthesized, and SYBR Green qRT-PCR performed in triplicates. Ct values were normalized to housekeeping gene GAPDH and fold change shown relative to vehicle (DMSO) control. Error bars represent SD from 3 independent experiments done in triplicate.

TF1 = test: alamarBlue growth inhibition, TF1; assay type: cell-based; details: Homo sapiens, TF-1, TF1, 48h, mean of 2 independent assays ± SD
Procedure: (§2) Cytotoxicity was assessed using alamarBlue assays (Life Technologies, Grand Island, NY) following manufacturer’s guidelines. Cell death was verified by Annexin V/7-aminoactinomycin D (7AAD) staining (BioLegend, San Diego, CA) per manufacturer’s guidelines.

K562 = test: alamarBlue growth inhibition, K562; assay type: cell-based; details: Homo sapiens, K562, 48h, mean of 2 independent assays ± SD
Procedure: as §2

MOLM14 cells = test: Total cellular ROS (CM-H2DCFDA flow cytometry); assay type: cell-based, human; details: MOLM14, 200 nM, 18h
Procedure: […] Cells were then treated with ART631 (200 nM) or DMSO control for 18h, with subsequent analysis by flow cytometry. Western blotting and quantitative reverse transcription PCR (qRT-PCR) to assess for molecular markers of ROS-mediated apoptosis were performed as previously described ([20]).
as §1, with “(A) MOLM14 AML cells were pre-treated with ROS detection reagent CM-H2DCFDA (5 mM) for 30 min, pre-treated with deferoxamine mesylate (DFO; 11 mM) for 60 min, and then treated with ART631 (200 nM) or DMSO control for 18h.” left out

KG1a = test: alamarBlue growth inhibition, KG1a; assay type: cell-based; details: Homo sapiens, KG-1a, 48h, mean of 2 independent assays ± SD
Procedure: as §2

C=CCO/N=C(/C[C@H]1O[C@@H]2O[C@@]3(C)CC[C@H]4[C@H](C)CC[C@@H]([C@H]1C)[C@@]24OO3)[C@H]1O[C@@H]2O[C@@]3(C)CC[C@H]4[C@H](C)CC[C@@H]([C@H]1C)[C@@]24OO3 [ART631]
DDIT3 mRNA (DDIT3): increased
IC50 (TF1): 27 ± 2 nM
IC50 (K562): > 1000 nM
total cellular ROS levels (MOLM14 cells): substantially increased
IC50 (KG1a): 29 ± 2 nM
